Where “and” joins values, the source holds several entries; their conditions need not be identical. Equal values may be shown once.
Columns and labels:
[1] = tested on: Angiotensin II (AII) vasopressor response; assay: AII Challenge: antagonism of the angiotensin II vasopressor response in conscious SHR; assay type: in vivo, Spontaneously hypertensive rats (Male okamoto-Aoki SHR); settings: 15 mg/kg I.V.; for Average Change / Inhibition: n = 2; for Change / Control Before AII / Response After AII: per rat
Description: […] Conscious Male okamoto-Aoki SHR, 16-20 weeks old, weighing approximately 330 g are purchased from Charles River Labs (Wilmington, MA). Conscious rats are restrained in a supine position with elastic tape. The area at the base of the tail is locally anesthetized by subcutaneous infiltration with 2% procaine. […] The cannula is secured, heparinized (1,000 I.U./ml), sealed and the wound is closed. The animals are placed in plastic restraining cages in an upright position. The cannula is attached to a Statham P23Db pressure transducer, and pulsatile blood pressure is recorded to 10-15 minutes with a Gould Brush recorder. (Chan et al., (Drug Development Res., 18:75-94, 1989). […] Co., St. […] […] […] […] […] A compound is considered active if at 30 mg/kg i.v. it antagonized at least 50% of the response.

Angiotensin II Receptor = molecular target: T1, Angiotensin II Receptor (Bos taurus, UniProt P25104); assay: Receptor binding assay: competition of [^125 I](Sar^1,Ile^8)AngII binding to beef adrenal cortex microsomal membranes; settings: 60 min, room temperature, pH 7.4
T1 construct: The brownish tissue forming the adrenal cortex is scraped off and finely minced with scissors before homogenization; tissue local slaughter house (Maxwell-Cohen); host or cells: beef adrenal cortex, microsomal membranes (100,000×g pellet)
T1 sequence (P25104 1-359): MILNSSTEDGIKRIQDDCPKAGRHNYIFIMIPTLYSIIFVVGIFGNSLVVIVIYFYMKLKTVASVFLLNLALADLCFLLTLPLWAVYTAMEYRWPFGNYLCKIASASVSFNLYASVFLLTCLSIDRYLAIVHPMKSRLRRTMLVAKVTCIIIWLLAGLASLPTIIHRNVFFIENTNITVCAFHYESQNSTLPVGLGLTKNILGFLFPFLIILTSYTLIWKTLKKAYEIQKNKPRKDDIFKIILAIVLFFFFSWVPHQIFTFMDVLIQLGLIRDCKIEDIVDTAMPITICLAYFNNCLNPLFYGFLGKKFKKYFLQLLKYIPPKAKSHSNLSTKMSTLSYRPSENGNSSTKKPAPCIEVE
Description: Beef adrenals are obtained from a local slaughter house (Maxwell-Cohen). [^125 […]. 2200 Ci/mmole, is purchased from Dupont (KEN@, Boston, Mass.). All unlabeled AngII analogs, Dimethylsulfoxide (DMSO), nucleotides, bovine serum albumin (BBA) are purchased from Sigma Chemical Co., St. Louis, MO U.S.A. Approximately sixteen (16) to twenty (20) beef adrenal glands are processed as follows: fresh adrenal glands received on crushed ice are cleaned of fatty tissues and the tough membranes encapsulating the glands are removed and discarded. The brownish tissue forming the adrenal cortex is scraped off and finely minced with scissors before homogenization care is taken to avoid contamination with medullary tissue during dissection. […] Unless otherwise indicated, all subsequent operations are done at […]. […] The homogenate is centrifuged first at low speed (3,000×g) for 10 min. […] This P2 pellet is discarded and the liquid phase is carefully decanted off in clean centrifuge tubes and recentrifuged at high speed (100,000×g) for 60 min. The translucent final pellet is harvested and combined in a small volume (20-50.0 ml) of […] Tris.HCl buffer, pH 7.2. A 100 ul aliquot is withdrawn and the protein content of the preparation is determined by the Lowry's method (Lowry, O. H., Rosebrough, N. P., Parr, A. L. and Randall, R. J., Protein measurement with Folin phenol reagent. J. Biol. Chem., […], 265-275, 1951). The pelleted membrane is reconstituted in 50.0 mM Tris.HCl buffer containing 0.1 mM of phenylmethylsulfonyl fluoride (PMSF) to give approximately a protein concentration of 2.5 mg per ml of tissue suspension. […] In competition studies, experimental compounds are diluted in dimethylsulfoxide (DMSO) and added in 20 ul to wells before the introduction of tissue membranes. This concentration of DMSO is found to have no negative effects on the binding of [^125 I] ([…] to the membranes. Assays are performed in triplicate. The wells are left undisturbed for 60 min. at room temperature. Following incubation, all wells are harvested at once with a Brandel® Harvester especially designed for a 96 well plate (Brandel® Biomedical Research & Development Labs. Inc., Gaithersburg, MD, U.S.A.). The filter discs are washed with 10×1.0 ml of cold 0.9% NaCl to remove unbound ligand. Presoaking the filter sheet in 0.1% polyethyleneimine in normal saline (PEI/Saline) greatly reduces the radioactivity retained by the filter blanks. This method is routinely used. The filters are removed from the filter grid and counted in a Parkard® Cobra Gamma Counter for 1 min. (Packard Instrument Co., Downers Grove, Ill, U.S.A.). The binding data are analyzed by the non-linear interactive "LUNDON-11" program (LUNDON SOFTWARE Inc., Cleveland, OH U.S.A.).

[2] = AII 0.05 mcg/kg IV, 30 min post dose
[3] = AII 0.05 mcg/kg IV, 60 min post dose
[4] = AII 0.05 mcg/kg IV, 90 min post dose
[5] = AII 0.05 mcg/kg IV, 120 min post dose
[6] = AII 0.05 mcg/kg IV, 180 min post dose
[7] = AII 0.1 mcg/kg IV, 30 min post dose
[8] = AII 0.1 mcg/kg IV, 60 min post dose
[9] = AII 0.1 mcg/kg IV, 90 min post dose
[10] = AII 0.1 mcg/kg IV, 120 min post dose
[11] = AII 0.1 mcg/kg IV, 180 min post dose

CCCCc1nc2ccc(C3(C)CC(C(=O)OCC)=NO3)cc2c(=O)n1Cc1ccc(-c2ccccc2-c2nnn[nH]2)cc1 (stereo not drawn) [Example 30]
Average Change [1, 2]: 10 mmhg | Inhibition [1, 2]: 78% | Change [1, 2]: 15 mmhg and 5 mmhg | Control Before AII [1, 2]: 175 mmhg and 215 mmhg | Response After AII [1, 2]: 190 mmhg and 220 mmhg | Average Change [1, 3]: 9 mmhg | Inhibition [1, 3]: 80% | Change [1, 3]: 0 mmhg and 18 mmhg | Control Before AII [1, 3]: 190 mmhg and 207 mmhg | Response After AII [1, 3]: 190 mmhg and 225 mmhg | Average Change [1, 4]: 20 mmhg | Inhibition [1, 4]: 57% | Change [1, 4]: 20 mmhg | Control Before AII [1, 4]: 170 mmhg and 210 mmhg | Response After AII [1, 4]: 190 mmhg and 230 mmhg | Average Change [1, 5]: 35 mmhg | Inhibition [1, 5]: 24% | Change [1, 5]: 40 mmhg and 30 mmhg | Control Before AII [1, 5]: 165 mmhg and 200 mmhg | Response After AII [1, 5]: 205 mmhg and 230 mmhg | Average Change [1, 6]: 5 mmhg | Inhibition [1, 6]: 89% | Change [1, 6]: 5 mmhg | Control Before AII [1, 6]: 200 mmhg and 240 mmhg | Response After AII [1, 6]: 205 mmhg and 245 mmhg | Average Change [1, 7]: 17 mmhg | Inhibition [1, 7]: 58% | Change [1, 7]: 14 mmhg and 20 mmhg | Control Before AII [1, 7]: 170 mmhg and 210 mmhg | Response After AII [1, 7]: 184 mmhg and 230 mmhg | Average Change [1, 8]: 20 mmhg | Inhibition [1, 8]: 50% | Change [1, 8]: 15 mmhg and 25 mmhg | Control Before AII [1, 8]: 185 mmhg and 200 mmhg | Response After AII [1, 8]: 200 mmhg and 225 mmhg | Average Change [1, 9]: 32.5 mmhg | Inhibition [1, 9]: 19% | Change [1, 9]: 35 mmhg and 30 mmhg | Control Before AII [1, 9]: 165 mmhg and 205 mmhg | Response After AII [1, 9]: 200 mmhg and 235 mmhg | Average Change [1, 10]: 29 mmhg | Inhibition [1, 10]: 28% | Change [1, 10]: 25 mmhg and 33 mmhg | Control Before AII [1, 10]: 175 mmhg and 200 mmhg | Response After AII [1, 10]: 200 mmhg and 233 mmhg | Average Change [1, 11]: 15 mmhg | Inhibition [1, 11]: 63% | Change [1, 11]: 25 mmhg and 5 mmhg | Control Before AII [1, 11]: 190 mmhg and 240 mmhg | Response After AII [1, 11]: 215 mmhg and 245 mmhg | IC50 (Angiotensin II Receptor): 200 nM

CCCCc1nc2ccc(C3CC(C(=O)O)=NO3)cc2c(=O)n1Cc1ccc(-c2ccccc2-c2nnn[nH]2)cc1 (stereo not drawn) [Example 28, 5-[2-butyl-3,4-dihydro-4-oxo-3-[[2'-(lH-tetrazol-5-yl)[1,1'-biphenyl]-4-yl]-methyl]-6-quinazolinyl]-4,5-dihydro-3-isoxazolecarboxylic acid]
Average Change [1, 2]: 10 mmhg | Inhibition [1, 2]: 75% | Change [1, 2]: 10 mmhg | Control Before AII [1, 2]: 185 mmhg and 167 mmhg | Response After AII [1, 2]: 195 mmhg and 177 mmhg | Average Change [1, 3]: 2.5 mmhg | Inhibition [1, 3]: 94% | Change [1, 3]: 5 mmhg and 0 mmhg | Control Before AII [1, 3]: 170 mmhg and 165 mmhg | Response After AII [1, 3]: 175 mmhg and 165 mmhg | Average Change [1, 4]: 10 mmhg | Inhibition [1, 4]: 75% | Change [1, 4]: 10 mmhg | Control Before AII [1, 4]: 185 mmhg | Response After AII [1, 4]: 195 mmhg | Average Change [1, 5]: 16 mmhg | Inhibition [1, 5]: 60% | Change [1, 5]: 22 mmhg and 10 mmhg | Control Before AII [1, 5]: 163 mmhg and 165 mmhg | Response After AII [1, 5]: 185 mmhg and 175 mmhg | Average Change [1, 6]: 15.5 mmhg | Inhibition [1, 6]: 61% | Change [1, 6]: 16 mmhg and 15 mmhg | Control Before AII [1, 6]: 170 mmhg | Response After AII [1, 6]: 186 mmhg and 185 mmhg | Average Change [1, 7]: 4.5 mmhg | Inhibition [1, 7]: 91% | Change [1, 7]: 9 mmhg and 0 mmhg | Control Before AII [1, 7]: 190 mmhg and 165 mmhg | Response After AII [1, 7]: 199 mmhg and 165 mmhg | Average Change [1, 8]: 14 mmhg | Inhibition [1, 8]: 73% | Change [1, 8]: 15 mmhg and 13 mmhg | Control Before AII [1, 8]: 175 mmhg and 157 mmhg | Response After AII [1, 8]: 190 mmhg and 170 mmhg | Average Change [1, 9]: 10 mmhg | Inhibition [1, 9]: 81% | Change [1, 9]: 10 mmhg | Control Before AII [1, 9]: 185 mmhg and 175 mmhg | Response After AII [1, 9]: 195 mmhg and 185 mmhg | Average Change [1, 10]: 20 mmhg | Inhibition [1, 10]: 62% | Change [1, 10]: 20 mmhg | Control Before AII [1, 10]: 180 mmhg and 165 mmhg | Response After AII [1, 10]: 200 mmhg and 185 mmhg | Average Change [1, 11]: 24.5 mmhg | Inhibition [1, 11]: 53% | Change [1, 11]: 24 mmhg and 25 mmhg | Control Before AII [1, 11]: 175 mmhg and 160 mmhg | Response After AII [1, 11]: 199 mmhg and 185 mmhg | IC50 (Angiotensin II Receptor): 600 nM

From patent US5284853A, “Angiotensin II receptor blocking 2,3,6 substituted quinazolinones” (American Cyanamid Company, priority 1993, dated 1994)
